Experimental data taken from ChEMBL document CHEMBL4814027, “Synthesis and biological evaluation of naphthoquinone phenacylimidazolium derivatives” (Bioorg Med Chem Lett, 2021).

Tests used:
A549 = assay: Cytotoxicity against human A549 cells by MTT assay
MCF7 = assay: Cytotoxicity against human MCF7 cells by MTT assay; format: functional, cell-based
L929 = assay: Cytotoxicity against mouse L929 cells by MTT assay
HeLa = assay: Cytotoxicity against human HeLa cells by MTT assay; format: functional, cell-based
[1] = Selectivity ratio of IC50 for mouse L929 cells to IC50 for human MCF7 cells; format: toxicity; settings: L929 cells versus MCF7 cells, read-out: Ratio IC50
[2] = Selectivity ratio of IC50 for mouse L929 cells to IC50 for human A549 cells; format: toxicity; settings: L929 cells versus A549 cells, read-out: Ratio IC50
[3] = Selectivity ratio of IC50 for mouse L929 cells to IC50 for human HeLa cells; format: toxicity; settings: L929 cells versus HeLa cells, read-out: Ratio IC50

Compound | IC50 (A549) [µM] | IC50 (MCF7) [µM] | IC50 (L929) [µM] | IC50 (HeLa) [µM] | selectivity ratio [1] | selectivity ratio [2] | selectivity ratio [3]
CC(C)Cn1c[n+](CC(=O)N(C)C)c2c1C(=O)c1ccccc1C2=O | 0.4 | 65.6 | 58.8 | 12.8 | 0.9 | 147 | 4.59
CC(C)Cn1c[n+](CC(=O)c2ccc(Br)cc2)c2c1C(=O)c1ccccc1C2=O | 2.4 | 0.69 | 15.5 | 2.7 | 22.5 | 6.46 | 5.74
Cn1c[n+](CC(=O)c2ccccc2)c2c1C(=O)c1ccccc1C2=O | 0.42 | 0.37 | 29.9 | 1.5 | 80.8 | 71.2 | 19.9
Cn1c[n+](CC(=O)C(C)(C)C)c2c1C(=O)c1ccccc1C2=O | 2.4 | 7.6 | 27.4 | 5.8 | 3.61 | 11.4 | 4.72
Cn1c[n+](CC(=O)c2ccc([N+](=O)[O-])cc2)c2c1C(=O)c1ccccc1C2=O | 3.6 | 12.1 | 53.1 | 10.1 | 4.39 | 14.8 | 5.26
Cn1c[n+](CC(=O)c2ccc(F)cc2)c2c1C(=O)c1ccccc1C2=O | 1.5 | 0.34 | 18.2 | 3.1 | 53.5 | 12.1 | 5.87
CCCn1c[n+](CC(=O)c2ccc([N+](=O)[O-])cc2)c2c1C(=O)c1ccccc1C2=O | 3 | 8.3 | 24.2 | 8.4 | 2.92 | 8.07 | 2.88
CN(C)C(=O)C[n+]1cn(C)c2c1C(=O)c1ccccc1C2=O | 0.1 | 7.6 | 4.3 | 0.2 | 0.57 | 43 | 21.5
CC(C)Cn1c[n+](CC(=O)c2ccc([N+](=O)[O-])cc2)c2c1C(=O)c1ccccc1C2=O | 1 | 2.3 | 4.6 | 2.7 | 2 | 4.6 | 1.7
Cn1c[n+](CC(=O)c2ccc3ccccc3c2)c2c1C(=O)c1ccccc1C2=O | 1.4 | 10.5 | 19 | 6.1 | 1.81 | 13.6 | 3.11
CCC(C)n1c[n+](CC(=O)c2ccc([N+](=O)[O-])cc2)c2c1C(=O)c1ccccc1C2=O (centres undefined) | 1.8 | 8.9 | 27.1 | 8.4 | 3.04 | 15.1 | 3.23
Cc1ccc(C(=O)C[n+]2cn(CC(C)C)c3c2C(=O)c2ccccc2C3=O)cc1 | 0.35 | 0.56 | 4.8 | 1.8 | 8.57 | 13.7 | 2.67
Cc1ccc(C(=O)C[n+]2cn(C)c3c2C(=O)c2ccccc2C3=O)cc1 | 0.16 | 0.6 | 14.7 | 3.5 | 24.5 | 91.9 | 4.2
CCn1c[n+](CC(=O)c2ccc([N+](=O)[O-])cc2)c2c1C(=O)c1ccccc1C2=O | 2.1 | 16.7 | 27.7 | 8.8 | 1.66 | 13.2 | 3.15
Cc1cc(C)c(-n2c[n+](CC(=O)c3ccc([N+](=O)[O-])cc3)c3c2C(=O)c2ccccc2C3=O)c(C)c1 | 6.6 | 12.3 | 24.5 | 41.7 | 1.99 | 3.71 | 0.59
COc1ccc(C(=O)C[n+]2cn(C)c3c2C(=O)c2ccccc2C3=O)cc1 | 0.24 | 0.71 | 11.7 | 1.6 | 16.5 | 48.8 | 7.31
CCCCn1c[n+](CC(=O)c2ccc([N+](=O)[O-])cc2)c2c1C(=O)c1ccccc1C2=O | 2.5 | 6.2 | 20 | 4.4 | 3.23 | 8 | 4.55
O=C(C[n+]1cn(-c2ccccc2)c2c1C(=O)c1ccccc1C2=O)c1ccc([N+](=O)[O-])cc1 | 40.4 | 59.1 | 31 | 20.3 | 0.52 | 0.77 | 1.53
Cn1c[n+](CC(=O)c2ccc(Cl)cc2)c2c1C(=O)c1ccccc1C2=O | 1 | 4.9 | 14.2 | 6.6 | 2.9 | 14.2 | 2.15
Cn1c[n+](CC(=O)c2ccc(Br)cc2)c2c1C(=O)c1ccccc1C2=O | 0.95 | 7.3 | 20.7 | 8.3 | 2.84 | 21.8 | 2.49
CC(C)Cn1c[n+](CC(=O)c2ccco2)c2c1C(=O)c1ccccc1C2=O | 0.37 | 0.32 | 8.5 | 0.6 | 26.6 | 23 | 14.2
Cn1c[n+](CC(=O)c2cccc([N+](=O)[O-])c2)c2c1C(=O)c1ccccc1C2=O | 2.2 | 12.9 | 36.9 | 7.6 | 2.86 | 16.8 | 4.86
Cn1c[n+](CC(=O)c2ccc(C(F)(F)F)cc2)c2c1C(=O)c1ccccc1C2=O | 1.3 | 7.4 | 19.3 | 9.2 | 2.61 | 14.9 | 2.1
CC(C)Cn1c[n+](CC(=O)c2ccc(Cl)cc2)c2c1C(=O)c1ccccc1C2=O | 3.3 | 0.66 | 9.4 | 3.8 | 14.2 | 2.85 | 2.47
Cn1c[n+](CC(=O)c2ccccc2[N+](=O)[O-])c2c1C(=O)c1ccccc1C2=O | 0.5 | 18 | 41.8 | 8.7 | 2.32 | 83.6 | 4.8
Cn1c[n+](CC(=O)c2cccs2)c2c1C(=O)c1ccccc1C2=O | 0.3 | 0.94 | 22.9 | 7 | 24.4 | 76.3 | 3.27
CC(C)Cn1c[n+](CC(=O)c2ccc(C(F)(F)F)cc2)c2c1C(=O)c1ccccc1C2=O | 7.8 | 7.6 | 26.3 | 9.2 | 3.46 | 3.37 | 2.86
